Measured values taken from ChEMBL document CHEMBL3044642, “Antimycobacterial activity of fractions and isolated compounds from Vetiveria zizanioides” (2012).
≈ marks a conversion by molar mass, not a printed value.

Legend:
Type in all cases: functional
[1] = test system: Mycolicibacterium smegmatis; assay: Antimycobacterial activity against quinolones and ciprofloxacin-resistant Mycobacterium smegmatis MDRQ after 24 hr by two-fold serial micro broth dilution method
[2] = test system: Mycolicibacterium smegmatis; assay: Antimycobacterial activity against rifampicin,tetracycline and chloramphenicol-resistant Mycobacterium smegmatis MDR-R after 24 hr by two-fold serial micro broth dilution method
[3] = test system: Mycolicibacterium smegmatis; assay: Antimycobacterial activity against lomofloxacin-resistant Mycobacterium smegmatis Lom R5 after 24 hr by two-fold serial micro broth dilution method; settings: Lom R5, 24 h
[4] = test system: Mycolicibacterium smegmatis; assay: Antimycobacterial activity against ciprofloxacin,lomofloxacin and norflaxacin-resistant Mycobacterium smegmatis CSC-101 after 24 hr by two-fold serial micro broth dilution method; settings: CSC-101, 24 h
[5] = test system: Mycolicibacterium smegmatis; assay: Antimycobacterial activity against rifampicin,amphiciline and kanamycin-resistant Mycobacterium smegmatis MDR-40 after 24 hr by two-fold serial micro broth dilution method; settings: MDR-40, 24 h
[6] = test system: Mycolicibacterium smegmatis; assay: Antimycobacterial activity against Mycobacterium smegmatis str. MC2 155 after 24 hr by two-fold serial micro broth dilution method; settings: str. MC2 155, 24 h

Row | SMILES | MIC [1] [µg/mL] | MIC [2] [µg/mL] | MIC [3] [µg/mL] | MIC [4] [µg/mL] | MIC [5] [µg/mL] | MIC [6] [µg/mL]
1 | CCCCC#CCCCC#CCCCCO | 250 (≈ 1130 µM) | 31.2 (≈ 142 µM) | > 250 | 62.5 (≈ 284 µM) | 31.2 (≈ 142 µM) | 125 (≈ 567 µM)
2 | O=C(O)c1cn(C2CC2)c2cc(N3CCNCC3)c(F)cc2c1=O [CIPROFLOXACIN] | 25 (≈ 75.4 µM) | 3.12 (≈ 9.43 µM) | 25 (≈ 75.4 µM) | 3.12 (≈ 9.43 µM) | > 25 | 0.78 (≈ 2.35 µM)
3 | CC1(C)CCC[C@@]2(C)C(CO)[C@H]3CC[C@H]2C3C1 (stereo not given in full) [HYDROXY JUNEPENE] | > 250 | 62.5 (≈ 264 µM) | > 250 | 125 (≈ 529 µM) | 31.2 (≈ 132 µM) | 62.5 (≈ 264 µM)
4 | CCn1cc(C(=O)O)c(=O)c2cc(F)c(N3CCNC(C)C3)c(F)c21 (stereo not given) [LOMEFLOXACIN] | > 50 | 10 (≈ 28.5 µM) | > 50 | < 1 | 2.5 (≈ 7.12 µM) | 0.78 (≈ 2.22 µM)
5 | CCn1cc(C(=O)O)c(=O)c2ccc(C)nc21 [NALIDIXIC ACID] | 50 (≈ 215 µM) | 50 (≈ 215 µM) | 25 (≈ 108 µM) | 6.25 (≈ 26.9 µM) | 50 (≈ 215 µM) | 0.78 (≈ 3.36 µM)
